# Results: publication PMC12298827, “Subchronic Toxicities of Four Per- and Polyfluoroalkyl Substances (PFASs) by Oral Exposure in Sprague–Dawley Rats” (Toxics, 2025)
# Test system: male and female Sprague–Dawley rats
# Experiment: 90-day subchronic oral gavage toxicity study
# Type: in vivo, rat
# Protocol: Subchronic (90-day) studies were performed in accordance with current U.S. EPA’s Toxic Substances Control Act Good Laboratory Practice (GLP) Standards, with the following two general exceptions to the GLP guidelines: Analysis of the dose formulations was conducted according to RTI-approved Standard Operating Procedures, and corn oil (the vehicle) was not characterized (certificate of analysis from the vendor is available in the appendices to the final reports). Male and female Sprague–Dawley rats (five dose levels plus a control, n = 10/sex/dose group, corn oil vehicle dose volume of 3 mL/kg; oral gavage) were used in these studies, and the rats were euthanized on SD 91. The dose levels for PFHI were 0, 12.5, 25, 50, 100, and 200 mg/kg-day. The dose levels for MHFPK were 0, 18.8, 37.5, 75, 150, and 300 mg/kg-day. The dose levels for PFNAC were 0, 0.1, 0.3, 1.0, 3.0, and 10 mg/kg-day for male rats and 0, 0.3, 1.0, 3.0, 10, and 30 mg/kg-day for female rats. For CTFPA, the dose levels were 0, 1.9, 3.8. 7.5, 15, and 30 mg/kg-day for male rats and 0, 6.3, 12.5, 25, 50, and 100 mg/kg-day for female rats. For each PFAS, three batches of dosing solution were prepared. The time between the batch preparation of the dosing solutions ranged between 29 and 39 days. Blood samples were collected from all the rats at termination for serum chemistry, hematology, coagulation, and the analysis of the parent PFAS chemical in the plasma. In vivo data collection and further detail on the endpoints examined postmortem are described below.
# The rats were observed twice daily for morbidity and mortality throughout the study period. At least once prior to randomization to test groups and weekly thereafter, the rats were physically examined, and bodyweights were obtained. Feed consumption was quantified weekly starting on SD 1.
# Neurotoxicity was evaluated using the functional observational battery (FOB) and measuring locomotor activity (LMA) 2–4 h post dosing on SDs 78–80 and 80–84, respectively. For both the 14- and 90-day studies, an ophthalmologic examination was conducted prior to randomization and near the end of the study, using indirect ophthalmoscopy and slit–lamp biomicroscopy (as needed) after the administration of a mydriatic solution.
# Hematology, biochemistry, and coagulation endpoints were measured at the termination of the study. A Siemens Advia 2120i hematology analyzer (Siemens Healthineers, Erlangen, Germany) was used to measure (or calculate) the parameters related to the complete blood count, leukocyte differential count, and reticulocyte count. The hematology parameters are listed and described in Table 2. The prothrombin time […] and activated partial thromboplastin time (APTT) were measured using an Instrumentation Laboratory (Bedford, MA, USA) ACL Elite Pro coagulation analyzer (laser–nephelometric centrifugal method).
# At necropsy, the rats were visually examined for external abnormalities and organ weights (absolute and relative to the BW and brain weight), which were recorded (paired organs weighed together). The tissues were preserved in 10% neutral buffered formalin (NBF), except for the ocular tissues, testes, and epididymides, which were preserved in modified Davidson’s fixative and later transferred to 10% NBF. Bone marrow smears were prepared from the femurs, and the slides were air-dried, fixed in methanol, stained, and stored at room temperature for possible future evaluation. The preserved tissues were embedded in paraffin, sectioned, stained with hematoxylin and eosin, and examined by a board-certified veterinary pathologist.
# Statistical analysis was performed using Provantis™ Version 10 or greater (Instem LSS, Limited; Stone, Staffordshire, UK). Differences among the treatment groups compared to the control were evaluated using one-way analysis of variance (ANOVA) if the underlying assumptions of a normal distribution (Shapiro–Wilk test) and the homogeneity of the variance (Levene’s test) were satisfied. […]
smiles,measurement,setting,value
"C=CC(=O)OCC(F)(F)C(F)(F)C(F)(F)C(F)(F)C(F)(F)C(F)(F)C(F)(F)C(F)F [PFNAC, 1H,1H,9H-Perfluorononyl acrylate]",Liver/Body Weight,"female, 30 mg/kg-day",3.22%
same,Liver/Brain Weight,"female, 30 mg/kg-day",499%
same,MPV,"female, 30 mg/kg-day",7.95 ± 0.58 fL
same,PT,"female, 30 mg/kg-day",14.44 s
same,RBC,"female, 30 mg/kg-day",7.067±0.364 M/µL
same,Total BW change,"female, 30 mg/kg-day",106.79 g
same,Total Food Consumed,"female, 30 mg/kg-day",1525 g
same,"BMD10, absolute kidney weight increase",male,0.17 mg/kg-day
same,"BMD10, absolute liver weight increase",male,0.09 mg/kg-day
same,"BMD10, relative liver weight increase",male,0.15 mg/kg-day
same,"BMDL, absolute kidney weight increase",male,0.06 mg/kg-day
same,"BMDL, absolute liver weight increase",male,0.04 mg/kg-day
same,"BMDL, relative liver weight increase",male,0.13 mg/kg-day
same,"LOEL, absolute kidney weight increase",male,0.3 mg/kg-day
same,"LOEL, absolute liver weight increase",male,0.3 mg/kg-day
same,"LOEL, relative kidney weight increase",male,1.0 mg/kg-day
same,"LOEL, relative liver weight increase",male,0.3 mg/kg-day
same,"NOEL, absolute kidney weight increase",male,0.1 mg/kg-day
same,"NOEL, absolute liver weight increase",male,0.1 mg/kg-day
same,"NOEL, relative kidney weight increase",male,0.3 mg/kg-day
same,"NOEL, relative liver weight increase",male,0.1 mg/kg-day
same,% BW Gain,"male, 0.1 mg/kg-day",110.97%
same,"% Diff, % BW Gain","male, 0.1 mg/kg-day",9.90%
same,"% Diff, Total BW change","male, 0.1 mg/kg-day",10.47%
same,"% Diff, Total Food Consumed","male, 0.1 mg/kg-day",3.57%
same,A/G,"male, 0.1 mg/kg-day",0.90±0.08 ratio
same,ABNEUT,"male, 0.1 mg/kg-day",4.163±1.653 K/µL
same,ABRETi,"male, 0.1 mg/kg-day",193.23±33.44 10^9/L
same,ABSEOS,"male, 0.1 mg/kg-day",0.112±0.047 K/µL
same,ALB,"male, 0.1 mg/kg-day",3.60 ± 0.21 g/dL
same,ALPi,"male, 0.1 mg/kg-day",138.7±40.9 U/L
same,APTT,"male, 0.1 mg/kg-day",23.16 s
same,BUN,"male, 0.1 mg/kg-day",16.2 ± 1.6 mg/dL
same,CHOL,"male, 0.1 mg/kg-day",73.4 ± 15.5 mg/dL
same,GLOB,"male, 0.1 mg/kg-day",4.03 ± 0.29 g/dL
same,GLUC,"male, 0.1 mg/kg-day",107.6 ± 8.6 mg/dL
same,HCT,"male, 0.1 mg/kg-day",46.10±4.64%
same,HGB,"male, 0.1 mg/kg-day",14.36 ± 1.40 g/dL
same,Kidney Weight,"male, 0.1 mg/kg-day",3.14 g
same,Kidney/Body Weight,"male, 0.1 mg/kg-day",0.51%
same,Kidney/Brain Weight,"male, 0.1 mg/kg-day",141%
same,Liver Weight,"male, 0.1 mg/kg-day",14.99 g
same,Liver/Body Weight,"male, 0.1 mg/kg-day",2.41%
same,Liver/Brain Weight,"male, 0.1 mg/kg-day",673%
same,MPV,"male, 0.1 mg/kg-day",7.82 ± 0.50 fL
same,PT,"male, 0.1 mg/kg-day",15.98 s
same,RBC,"male, 0.1 mg/kg-day",8.281±0.895 M/µL
same,Total BW change,"male, 0.1 mg/kg-day",333.40 g
same,Total Food Consumed,"male, 0.1 mg/kg-day",2298 g
same,% BW Gain,"male, 0.3 mg/kg-day",113.17%
same,"% Diff, % BW Gain","male, 0.3 mg/kg-day",12.08%
same,"% Diff, Total BW change","male, 0.3 mg/kg-day",12.46%
same,"% Diff, Total Food Consumed","male, 0.3 mg/kg-day",9.40%
same,A/G,"male, 0.3 mg/kg-day",0.98±0.10 ratio
same,ABNEUT,"male, 0.3 mg/kg-day",3.679±1.341 K/µL
same,ABRETi,"male, 0.3 mg/kg-day",224.66±50.41 10^9/L
same,ABSEOS,"male, 0.3 mg/kg-day",0.108±0.037 K/µL
same,ALB,"male, 0.3 mg/kg-day",3.74 ± 0.23 g/dL
same,ALPi,"male, 0.3 mg/kg-day",174.2±32.7 U/L
same,APTT,"male, 0.3 mg/kg-day",15.99 s
same,BUN,"male, 0.3 mg/kg-day",18.3 ± 1.6 mg/dL
same,CHOL,"male, 0.3 mg/kg-day",78.7 ± 16.8 mg/dL
same,GLOB,"male, 0.3 mg/kg-day",3.85 ± 0.30 g/dL
same,GLUC,"male, 0.3 mg/kg-day",112.1 ± 9.6 mg/dL
same,HCT,"male, 0.3 mg/kg-day",47.33±1.28%
same,HGB,"male, 0.3 mg/kg-day",14.69 ± 0.40 g/dL
same,Kidney Weight,"male, 0.3 mg/kg-day",3.46 g
same,Kidney/Body Weight,"male, 0.3 mg/kg-day",0.56%
same,Kidney/Brain Weight,"male, 0.3 mg/kg-day",157%
same,Liver Weight,"male, 0.3 mg/kg-day",17.52 g
same,Liver/Body Weight,"male, 0.3 mg/kg-day",2.82%
same,Liver/Brain Weight,"male, 0.3 mg/kg-day",793%
same,MPV,"male, 0.3 mg/kg-day",7.63 ± 0.44 fL
same,PT,"male, 0.3 mg/kg-day",15.10 s
same,RBC,"male, 0.3 mg/kg-day",8.282±0.259 M/µL
same,Total BW change,"male, 0.3 mg/kg-day",339.42 g
same,Total Food Consumed,"male, 0.3 mg/kg-day",2427 g
same,% BW Gain,"male, 1.0 mg/kg-day",108.93%
same,"% Diff, % BW Gain","male, 1.0 mg/kg-day",7.88%
same,"% Diff, Total BW change","male, 1.0 mg/kg-day",4.36%
